This is an account of results in publication PMC11576109, “Synthesis and biological evaluation of diclofenac acid derivatives as potential lipoxygenase and α-glucosidase inhibitors” (Royal Society Open Science, 2024).

Molecules are shown by their SMILES. Entries after “also recorded” stand apart in the source; their conditions may differ. Where only a bound is given, the exact number is not on record here.

One data set addresses T1, soybean 15-LOX (Glycine max, UniProt P08170).
T1 sequence (P08170 1-839): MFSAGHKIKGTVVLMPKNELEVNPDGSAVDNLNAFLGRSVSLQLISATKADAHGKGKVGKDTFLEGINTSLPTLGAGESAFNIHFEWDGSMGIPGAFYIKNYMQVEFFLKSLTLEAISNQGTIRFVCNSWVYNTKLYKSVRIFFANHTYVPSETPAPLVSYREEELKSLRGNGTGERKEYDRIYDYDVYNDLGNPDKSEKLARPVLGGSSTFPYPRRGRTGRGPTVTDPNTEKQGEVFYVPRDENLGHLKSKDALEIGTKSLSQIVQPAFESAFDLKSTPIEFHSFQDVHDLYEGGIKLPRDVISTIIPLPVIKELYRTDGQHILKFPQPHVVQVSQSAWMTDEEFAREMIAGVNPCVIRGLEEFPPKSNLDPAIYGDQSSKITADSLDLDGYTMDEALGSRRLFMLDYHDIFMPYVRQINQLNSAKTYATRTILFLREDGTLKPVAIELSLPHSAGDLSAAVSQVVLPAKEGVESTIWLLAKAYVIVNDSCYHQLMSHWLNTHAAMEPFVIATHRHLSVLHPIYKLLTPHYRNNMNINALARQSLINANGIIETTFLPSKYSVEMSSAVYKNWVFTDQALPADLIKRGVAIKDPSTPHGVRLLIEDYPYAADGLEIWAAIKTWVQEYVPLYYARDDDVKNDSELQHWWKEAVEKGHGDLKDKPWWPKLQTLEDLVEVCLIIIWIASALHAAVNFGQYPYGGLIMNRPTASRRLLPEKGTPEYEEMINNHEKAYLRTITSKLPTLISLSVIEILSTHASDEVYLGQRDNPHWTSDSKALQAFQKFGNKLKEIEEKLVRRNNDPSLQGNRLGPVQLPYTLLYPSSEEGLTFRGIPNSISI
Nature of the data set: In vitro 15-lipoxygenase inhibition assay. The format is biochemical. As to conditions: read-out: IC50 (µM) ± SEM 15-LOX. The text has this:
(§1) Assay protocols for bioactivity were placed in electronic supplementary material.

The next data set deals with α-glucosidase (Saccharomyces cerevisiae, UniProt P53341). Nature of the data set: In vitro α-glucosidase inhibition assay. As to conditions: NA = not active; for IC50: read-out: IC50 (µM) ± SEM α-glucosidase. The format is biochemical.
Description: as §1
Synthesized diclofenac acid derivatives were screened for α-glucosidase inhibitory activity (table 2).

A further data set has as its system mononuclear cells (MNCs). Nature of the data set: Cellular viability assay on mononuclear cells. The format is cell-based, human.
Description: (§2) All of the chemicals and solvents were obtained from Sigma-Aldrich and used directly without any purification. Mononuclear cells were isolated from the blood samples taken from healthy volunteers. Diclofenac acid was purchased from Alfa Aesar. Bruker Avance 400 and 500 MHz spectrometers were used to […] the ^1H and ^13C nuclear magnetic resonance (NMR) spectra, were captured with tetramethylsilane (TMS) serving as an internal reference. On a Finnegan MAT-311A mass spectrometer, high-resolution mass spectrometry using electron ionization (HRMS (EI)) data were recorded. Using the Stuart melting point apparatus, melting points in open capillaries were determined (SMP10). All reactions were monitored by using thin layer chromatography (TLC) plates that were pre-coated with silica gel 60F254.
as §1
(§3) Using mononuclear cells (MNCs) at a concentration of 0.25 mM as shown in the table 2, the per cent viability was calculated.

Data set [1] is described as follows: Cellular viability assay on mononuclear cells. The conditions noted are these: human, mononuclear cells (MNCs) isolated from blood, read-out: cell viability (%) at 0.25 mM. The format is cell-based, human.
Description: as §2, §1, §3

α-glucosidase, sequence (P53341 whole entry): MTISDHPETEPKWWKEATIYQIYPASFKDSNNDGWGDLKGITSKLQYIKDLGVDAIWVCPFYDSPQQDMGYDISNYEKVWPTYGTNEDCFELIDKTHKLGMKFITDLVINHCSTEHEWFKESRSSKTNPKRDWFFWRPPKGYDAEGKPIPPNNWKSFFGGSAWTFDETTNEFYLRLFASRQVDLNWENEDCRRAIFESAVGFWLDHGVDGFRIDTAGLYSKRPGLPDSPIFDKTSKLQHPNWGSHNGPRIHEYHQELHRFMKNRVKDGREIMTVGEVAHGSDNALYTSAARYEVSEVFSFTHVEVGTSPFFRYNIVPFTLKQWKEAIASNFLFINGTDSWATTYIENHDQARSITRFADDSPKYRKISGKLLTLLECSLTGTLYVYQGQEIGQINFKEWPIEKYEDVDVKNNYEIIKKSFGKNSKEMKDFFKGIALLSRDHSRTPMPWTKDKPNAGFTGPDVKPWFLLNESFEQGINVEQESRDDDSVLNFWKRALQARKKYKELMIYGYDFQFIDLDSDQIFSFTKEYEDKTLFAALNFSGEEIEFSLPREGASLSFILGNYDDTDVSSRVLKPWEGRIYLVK

In the case of `O=C(Cc1ccccc1Nc1c(Cl)cccc1Cl)NNC(=S)Nc1cccc(F)c1` [4b], the IC50 on soybean 15-LOX is over 250 µM; at α-glucosidase it was 5 ± 1 µM. Moreover, the “cell viability (%) at 0.25 mM” value in the data set with mononuclear cells (MNCs) is listed as 82 ± 1%.
Taken in the same sequence, the figures for `O=C(Cc1ccccc1Nc1c(Cl)cccc1Cl)NNC(=S)Nc1cccc(Cl)c1Cl` [4d] were 164 ± 1 µM, 28 ± 1 µM and 73 ± 1%.
Regarding `Fc1ccccc1Nc1nnc(Cc2ccccc2Nc2c(Cl)cccc2Cl)o1` [7a], the IC50 at soybean 15-LOX amounted to 98 ± 1 µM; at α-glucosidase it was 7 ± 1 µM. Besides, the “cell viability (%) at 0.25 mM” value with mononuclear cells (MNCs) is given as 76 ± 1%.
Taken in the same sequence, the figures for `O=C(Cc1ccccc1Nc1c(Cl)cccc1Cl)NNC(=S)Nc1ccccc1F` [4a] were 163 ± 1 µM, 53 ± 1 µM and 79 ± 2%.
Taken in the same sequence, the figures for `Clc1ccc(Nc2nnc(Cc3ccccc3Nc3c(Cl)cccc3Cl)o2)c(Cl)c1` [7e] were 172 ± 1 µM, 61 ± 1 µM and 43 ± 1%.
Taken in the same sequence, the figures for `Clc1ccc(Nc2nnc(Cc3ccccc3Nc3c(Cl)cccc3Cl)s2)cc1Cl` [8f] were 156 ± 1 µM, 125 ± 1 µM and 95 ± 2%.
With `O=C(Cc1ccccc1Nc1c(Cl)cccc1Cl)NNC(=S)Nc1ccc(Cl)cc1Cl` [4e], the IC50 on soybean 15-LOX was 177 ± 1 µM; at α-glucosidase, 87 ± 1 µM. Also, the “cell viability (%) at 0.25 mM” value with mononuclear cells (MNCs) was found to be 64 ± 2%.
As for `CCSc1nnc(Cc2ccccc2Nc2c(Cl)cccc2Cl)n1-c1ccc(F)cc1` [6a], the IC50 was over 250 µM on soybean 15-LOX and 116 ± 1 µM at α-glucosidase. In the data set with mononuclear cells (MNCs), the “cell viability (%) at 0.25 mM” value worked out at 88 ± 2%.
Taken in the same sequence, the figures for `CCSc1nnc(Cc2ccccc2Nc2c(Cl)cccc2Cl)n1-c1ccc(Cl)c(Cl)c1` [6b] were over 250 µM, 132 ± 1 µM and 98 ± 1%.
Taken in the same sequence, the figures for `Fc1ccccc1-n1c(S)nnc1Cc1ccccc1Nc1c(Cl)cccc1Cl` [5a] were 14 ± 1 µM, 202 ± 1 µM and 97 ± 2%.
With `O=c1c(O)c(-c2ccc(O)c(O)c2)oc2cc(O)cc(O)c12` [quercetin, reference compound], the viability at 0.25 mM in data set [1] was found to be 92 ± 1%.
Take `Fc1cccc(Nc2nnc(Cc3ccccc3Nc3c(Cl)cccc3Cl)s2)c1` [8b]: the IC50 amounted to 97 ± 1 µM at soybean 15-LOX and 11 ± 1 µM at α-glucosidase. The “cell viability (%) at 0.25 mM” value in the data set on mononuclear cells (MNCs) worked out at 92 ± 2%.
Taken in the same sequence, the figures for `Fc1cccc(-n2c(S)nnc2Cc2ccccc2Nc2c(Cl)cccc2Cl)c1` [5b] were 61 ± 1 µM, 308 ± 1 µM and 96 ± 2%.
For `O=P1(N(CCCl)CCCl)NCCCO1` (stereo not shown) [cyclophosphamide, reference compound], the viability at 0.25 mM in data set [1] amounted to 56 ± 2%.
As for `Sc1nnc(Cc2ccccc2Nc2c(Cl)cccc2Cl)n1-c1ccc(Cl)cc1Cl` [5e], the IC50 on soybean 15-LOX stood at 93 ± 1 µM; at α-glucosidase, 92 ± 1 µM. For the same compound, the “cell viability (%) at 0.25 mM” value in the data set on mononuclear cells (MNCs) is listed as 94 ± 1%.
Taken in the same sequence, the figures for `Clc1cccc(Nc2nnc(Cc3ccccc3Nc3c(Cl)cccc3Cl)s2)c1Cl` [8d] were 132 ± 1 µM, 46 ± 1 µM and 98 ± 2%.
In the case of `Clc1ccc(Nc2nnc(Cc3ccccc3Nc3c(Cl)cccc3Cl)o2)cc1Cl` [7f], the IC50 amounted to 143 ± 1 µM at soybean 15-LOX and 91 ± 1 µM at α-glucosidase. In addition, the “cell viability (%) at 0.25 mM” value in the data set on mononuclear cells (MNCs) stood at 59 ± 2%.
As for `Sc1nnc(Cc2ccccc2Nc2c(Cl)cccc2Cl)n1-c1ccc(Cl)c(Cl)c1` [5f], the half-inhibitory concentration (IC50) at soybean 15-LOX is 75 ± 1 µM; at α-glucosidase, 247 ± 1 µM. Moreover, in the data set on mononuclear cells (MNCs), the “cell viability (%) at 0.25 mM” value was found to be 97 ± 2%.
As for `Clc1ccc(Nc2nnc(Cc3ccccc3Nc3c(Cl)cccc3Cl)s2)c(Cl)c1` [8e], the IC50 at soybean 15-LOX is over 250 µM. In addition, at α-glucosidase, the “IC50 (µM) ± SEM α-glucosidase” value was “inactive; also recorded: non-active”. In addition, the “cell viability (%) at 0.25 mM” value in the data set with mononuclear cells (MNCs) turned out to be 75 ± 1%.
Take `Fc1ccccc1Nc1nnc(Cc2ccccc2Nc2c(Cl)cccc2Cl)s1` [8a]: the figures for the IC50 on soybean 15-LOX and at α-glucosidase were over 250 µM and 99 ± 1 µM, respectively. Besides, in the data set with mononuclear cells (MNCs), the “cell viability (%) at 0.25 mM” value stood at 86 ± 2%.
Turning to `COc1cc(/C=C/C(=O)CC(=O)/C=C/c2ccc(O)c(OC)c2)ccc1O` [curcumin, reference compound], the viability at 0.25 mM in data set [1] was determined as 74 ± 2%.
As to `CCCSc1nnc(Cc2ccccc2Nc2c(Cl)cccc2Cl)n1-c1ccc(F)cc1` [6c], the half-maximal inhibitory concentration (IC50) was over 250 µM at soybean 15-LOX and 92 ± 1 µM on α-glucosidase. The “cell viability (%) at 0.25 mM” value with mononuclear cells (MNCs) is 85 ± 1%.
As to `CCCSc1nnc(Cc2ccccc2Nc2c(Cl)cccc2Cl)n1-c1ccc(Cl)c(Cl)c1` [6d], the IC50 at soybean 15-LOX was over 250 µM; on α-glucosidase it was 90 ± 1 µM. Also, in the data set with mononuclear cells (MNCs), the “cell viability (%) at 0.25 mM” value is 78 ± 2%.
Taken in the same sequence, the figures for `Fc1ccc(Nc2nnc(Cc3ccccc3Nc3c(Cl)cccc3Cl)o2)cc1` [7c] were 67 ± 1 µM, 85 ± 1 µM and 63 ± 1%.
Turning to `O=c1cc(-c2ccccc2)oc2cc(O)c(O)c(O)c12` [baicalein, reference compound], at soybean 15-LOX, the IC50 turned out to be 22 ± 1 µM.
On to `Sc1nnc(Cc2ccccc2Nc2c(Cl)cccc2Cl)n1-c1cccc(Cl)c1Cl` [5d], for which the IC50 at soybean 15-LOX is 141 ± 1 µM; on α-glucosidase, 83 ± 1 µM. Further, the “cell viability (%) at 0.25 mM” value with mononuclear cells (MNCs) is reported as 96 ± 2%.
Taken in the same sequence, the figures for `Fc1ccc(Nc2nnc(Cc3ccccc3Nc3c(Cl)cccc3Cl)s2)cc1` [8c] were 173 ± 1 µM, 55 ± 1 µM and 76 ± 1%.
Taken in the same sequence, the figures for `O=C(Cc1ccccc1Nc1c(Cl)cccc1Cl)NNC(=S)Nc1ccc(F)cc1` [4c] were over 250 µM, 53 ± 1 µM and 62 ± 2%.
Regarding `O=C(Cc1ccccc1Nc1c(Cl)cccc1Cl)NNC(=S)Nc1ccc(Cl)c(Cl)c1` [4f], the results for the IC50 on soybean 15-LOX and on α-glucosidase were over 250 µM and 93 ± 1 µM, respectively. For the same compound, the “cell viability (%) at 0.25 mM” value in the data set on mononuclear cells (MNCs) is 64 ± 2%.
Taken in the same sequence, the figures for `Fc1cccc(Nc2nnc(Cc3ccccc3Nc3c(Cl)cccc3Cl)o2)c1` [7b] were 87 ± 1 µM, 3 ± 1 µM and 72 ± 1%.
Take `Fc1ccc(-n2c(S)nnc2Cc2ccccc2Nc2c(Cl)cccc2Cl)cc1` [5c]: the IC50 at soybean 15-LOX was over 250 µM; at α-glucosidase, 170 ± 1 µM. Further, the “cell viability (%) at 0.25 mM” value with mononuclear cells (MNCs) turned out to be 96 ± 2%.
Consider `Clc1cccc(Nc2nnc(Cc3ccccc3Nc3c(Cl)cccc3Cl)o2)c1Cl` [7d], for which the IC50 was determined as 165 ± 1 µM on soybean 15-LOX and 79 ± 1 µM at α-glucosidase. Moreover, in the data set with mononuclear cells (MNCs), the “cell viability (%) at 0.25 mM” value is 62 ± 2%.

By IC50 is commonly meant the concentration that inhibits the measured activity by half. The term viability denotes a read-out of living cells in per cent, often relative to untreated cells.
